Experiments:
[1] = biological target: T1, Monocarboxylate transporter 1 (Homo sapiens, UniProt P53985); assay: Inhibition of MCT-1 in human A549 cells assessed as potentiation of 3-BP-mediated cytotoxicity by measuring decrease in cell viability incubated for 72 hrs in presence of 3-BP by MTT assay; format: cell-based
T1 sequence (P53985 whole entry): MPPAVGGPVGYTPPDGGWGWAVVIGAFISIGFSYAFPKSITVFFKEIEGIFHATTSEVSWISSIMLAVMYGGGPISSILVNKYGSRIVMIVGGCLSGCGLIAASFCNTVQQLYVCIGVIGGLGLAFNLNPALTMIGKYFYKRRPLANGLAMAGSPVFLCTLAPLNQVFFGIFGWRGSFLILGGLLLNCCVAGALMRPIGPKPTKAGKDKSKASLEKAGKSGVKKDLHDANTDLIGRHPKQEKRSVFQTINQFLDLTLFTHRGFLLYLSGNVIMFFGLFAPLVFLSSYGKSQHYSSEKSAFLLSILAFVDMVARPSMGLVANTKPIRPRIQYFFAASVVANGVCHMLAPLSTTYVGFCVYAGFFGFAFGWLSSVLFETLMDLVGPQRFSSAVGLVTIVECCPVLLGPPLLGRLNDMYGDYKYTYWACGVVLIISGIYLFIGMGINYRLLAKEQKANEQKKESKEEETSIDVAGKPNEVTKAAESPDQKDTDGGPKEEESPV

A549 = assay: Cytotoxicity against MCT1 expressing human A549 cells assessed as inhibition of cell growth incubated for 72 hrs by MTT assay; format: functional
[2] = biological target: T2, Monocarboxylate transporter 4 (Homo sapiens) (UniProt O15427); assay: Reversal of MCT4-mediated multidrug resistance in human MDA-MB-231 cells assessed as fold increase in doxorubicin-mediated cytotoxicity incubated for 72 hrs in presence of doxorubicin by MTT assay relative to control; format: cell-based
T2 sequence (whole entry): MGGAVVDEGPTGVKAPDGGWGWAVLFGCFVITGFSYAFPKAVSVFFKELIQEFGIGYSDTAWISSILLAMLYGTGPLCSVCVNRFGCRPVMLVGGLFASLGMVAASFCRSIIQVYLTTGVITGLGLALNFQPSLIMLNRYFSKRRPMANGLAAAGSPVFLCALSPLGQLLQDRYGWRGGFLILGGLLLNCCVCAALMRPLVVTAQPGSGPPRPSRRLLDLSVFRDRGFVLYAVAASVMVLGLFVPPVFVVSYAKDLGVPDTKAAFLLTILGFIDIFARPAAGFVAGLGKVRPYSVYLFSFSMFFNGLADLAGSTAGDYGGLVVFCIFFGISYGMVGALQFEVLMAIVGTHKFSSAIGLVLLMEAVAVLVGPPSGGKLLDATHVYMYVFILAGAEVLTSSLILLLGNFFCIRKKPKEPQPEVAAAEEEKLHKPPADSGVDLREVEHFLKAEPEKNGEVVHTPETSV

MCF7 = assay: Cytotoxicity against MCT1 expressing human MCF7 cells assessed as inhibition of cell growth incubated for 72 hrs by MTT assay; format: functional
[3] = biological target: T3, Broad substrate specificity ATP-binding cassette transporter ABCG2 (Homo sapiens, UniProt Q9UNQ0); assay: Ratio of IC50 for inhibition of ABCG2 (unknown origin) expressed in dog MDCK-II-BCRP cells using pheophorbide as tracer to EC50 for reversal of ABCG2 (unknown origin)-mediated multidrug resistance transfected in dog MDCK-II-BCRP cells in presence of SN-38; format: cell-based
T3 sequence (Q9UNQ0 whole entry): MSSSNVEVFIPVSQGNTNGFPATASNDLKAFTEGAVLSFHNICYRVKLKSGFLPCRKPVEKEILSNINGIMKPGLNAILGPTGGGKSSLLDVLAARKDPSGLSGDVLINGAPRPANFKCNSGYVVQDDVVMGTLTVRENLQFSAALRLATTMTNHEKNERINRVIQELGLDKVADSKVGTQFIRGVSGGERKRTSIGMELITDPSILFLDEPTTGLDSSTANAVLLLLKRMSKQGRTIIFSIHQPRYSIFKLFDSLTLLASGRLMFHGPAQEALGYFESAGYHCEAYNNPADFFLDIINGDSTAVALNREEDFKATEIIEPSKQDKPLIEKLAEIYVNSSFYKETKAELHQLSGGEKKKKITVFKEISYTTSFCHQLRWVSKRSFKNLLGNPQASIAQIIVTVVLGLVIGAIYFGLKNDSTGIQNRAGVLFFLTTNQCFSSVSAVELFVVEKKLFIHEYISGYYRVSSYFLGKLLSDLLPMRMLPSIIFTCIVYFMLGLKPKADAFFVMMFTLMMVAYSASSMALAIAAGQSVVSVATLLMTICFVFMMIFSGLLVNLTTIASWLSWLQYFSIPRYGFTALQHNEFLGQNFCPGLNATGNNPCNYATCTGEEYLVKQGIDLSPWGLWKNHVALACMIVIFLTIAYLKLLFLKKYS

[4] = biological target: T3, Broad substrate specificity ATP-binding cassette transporter ABCG2; assay: Ratio of IC50 for inhibition of ABCG2 (unknown origin) expressed in dog MDCK-II-BCRP cells using Hoechst 33342 as tracer to EC50 for reversal of ABCG2 (unknown origin)-mediated multidrug resistance transfected in dog MDCK-II-BCRP cells in presence of SN-38; format: cell-based
[5] = biological target: T3, Broad substrate specificity ATP-binding cassette transporter ABCG2; assay: Reversal of ABCG2 (unknown origin)-mediated multidrug resistance transfected in dog MDCK-II-BCRP cells assessed as increase in SN-38-mediated cytotoxicity incubated for 72 hrs in presence of SN-38 by MTT assay; format: cell-based

Row | SMILES | IC50 [1] | GI50 (A549) [µM] | fold change (FC) [2] | GI50 (MCF7) [µM] | Ratio IC50/EC50 [3] | Ratio IC50/EC50 [4] | EC50 [5]
1 | COc1cccc(NC(=O)c2nn(CC(=O)Nc3ccccc3OC)c3ccccc23)c1 | Not_active |  |  |  |  |  | 
2 | O=C(Cn1nc(C(=O)Nc2ccccn2)c2ccccc21)Nc1cc(Cl)ccc1Cl |  | 37.1 | 3.52 |  |  |  | 
3 | O=C(Cn1nc(C(=O)Nc2cccnc2)c2ccccc21)Nc1ccc(Cl)cc1 |  | 28.6 | 3.85 | 10.8 | > 13 | > 5 | 
4 | COc1cccc(NC(=O)Cn2nc(C(=O)Nc3cccc(OC)c3)c3ccccc32)c1 | Not_active |  |  |  |  |  | Not_active

— ChEMBL document CHEMBL6109064, “Functional and structural polypharmacology of indazole-based privileged ligands to tackle the undruggability of membrane transporters” (Eur J Med Chem, 2025)
